Reference: patent US12723063B2, “GIPR-agonist compounds” (Eli Lilly and Company, priority 2019, dated 2026)
*1 amine or outer side, *2 acyl side, *3 side chain or, on linkers, in order; H or OH if unused. Where a SMILES comes first, the peptide text is derived from it. Side-chain parts run from the residue outwards. [ ]: non-standard residue; d: D form. The star is where a group is joined. C20 diacid = O=C(O)CCCCCCCCCCCCCCCCCCC(=O)*; αMePhe(2-F) = C[C@](N)(Cc1ccccc1F)C(=O)O; γGlu = O=C(O)[C@H](CCC(=O)[*:2])N[*:1]; αMeF = C[C@](N)(Cc1ccccc1)C(=O)O; 4Pal = N[C@@H](Cc1ccncc1)C(=O)O; αMeL = CC(C)C[C@](C)(N)C(=O)O; AEEA = NCCOCCOCC(=O)O; Aib = CC(C)(N)C(=O)O

Biological target: T1, human GcgR (Homo sapiens, UniProt P47871)
T1 construct: expressed in transfected cells; crude membranes
Experiment: [125I]-Glucagon binding, SPA with WGA beads, 0.1% bacitracin
Conditions: geometric mean, read-out: hGcgR Ki
Method in brief: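 SPA competition binding with WGA beads on crude membranes from HEK293 cells stably expressing hGcgR. Buffer: 25 mM HEPES pH 7.4, 2.5 mM CaCl2, 1 mM MgCl2, 0.1% bacitracin, 0.003% Tween-20; 10-point 3-fold dilutions, NSB with 1 μM Gcg.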

T1 sequence (P47871 26-477): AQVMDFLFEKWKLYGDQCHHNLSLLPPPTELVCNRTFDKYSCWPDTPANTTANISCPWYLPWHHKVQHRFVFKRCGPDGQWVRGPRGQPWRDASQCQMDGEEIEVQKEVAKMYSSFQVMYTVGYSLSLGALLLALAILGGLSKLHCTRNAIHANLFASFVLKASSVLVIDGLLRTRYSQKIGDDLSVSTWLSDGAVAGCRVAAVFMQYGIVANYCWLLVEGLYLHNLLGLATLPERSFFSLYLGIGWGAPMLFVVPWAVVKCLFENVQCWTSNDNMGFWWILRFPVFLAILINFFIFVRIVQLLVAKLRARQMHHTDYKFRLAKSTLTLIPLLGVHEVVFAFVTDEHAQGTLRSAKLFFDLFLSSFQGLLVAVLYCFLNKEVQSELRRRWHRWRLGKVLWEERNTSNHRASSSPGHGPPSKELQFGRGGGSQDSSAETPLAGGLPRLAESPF

SMILES	Ki [µM]
CC[C@H](C)[C@H](NC(=O)[C@H](Cc1ccccc1)NC(=O)[C@@H](NC(=O)CNC(=O)[C@H](CCC(=O)O)NC(=O)C(C)(C)NC(=O)[C@@H](N)Cc1ccc(O)cc1)[C@@H](C)O)C(=O)N[C@@H](CO)C(=O)N[C@@H](CC(=O)O)C(=O)N[C@@H](Cc1ccc(O)cc1)C(=O)N[C@@H](CO)C(=O)N[C@H](C(=O)N[C@@](C)(CC(C)C)C(=O)N[C@@H](CC(C)C)C(=O)N[C@@H](CC(=O)O)C(=O)N[C@@H](CCCCN)C(=O)N[C@@H](CCCCNC(=O)COCCOCCNC(=O)COCCOCCNC(=O)CC[C@H](NC(=O)CCCCCCCCCCCCCCCCCCC(=O)O)C(=O)O)C(=O)N[C@@H](Cc1c[nH]cn1)C(=O)N[C@@H](CCC(N)=O)C(=O)NC(C)(C)C(=O)N[C@@H](CC(=O)O)C(=O)N[C@@H](Cc1ccccc1)C(=O)N[C@H](C(=O)N[C@@H](CCC(=O)O)C(=O)N[C@@H](Cc1ccc(O)cc1)C(=O)N[C@@H](CC(C)C)C(=O)N[C@@H](CC(C)C)C(=O)N[C@@H](C)C(=O)NCC(=O)NCC(=O)N1CCC[C@H]1C(=O)N[C@@H](CO)C(=O)N[C@@H](CO)C(=O)NCC(=O)N[C@@H](C)C(=O)N1CCC[C@H]1C(=O)N1CCC[C@H]1C(=O)N1CCC[C@H]1C(=O)N[C@@H](CO)C(N)=O)C(C)C)[C@@H](C)CC [Example 53] (H-Y[Aib]EGTFISDYSI[αMeL]LDKK([AEEA-AEEA-γGlu-C20 diacid])HQ[Aib]DFVEYLLAGGPSSGAPPPS-NH2)	0.152
CC[C@H](C)[C@H](NC(=O)[C@H](Cc1ccccc1)NC(=O)[C@@H](NC(=O)CNC(=O)[C@H](CCC(=O)O)NC(=O)C(C)(C)NC(=O)[C@@H](N)Cc1ccc(O)cc1)[C@@H](C)O)C(=O)N[C@@H](CO)C(=O)N[C@@H](CC(=O)O)C(=O)N[C@@H](Cc1ccc(O)cc1)C(=O)N[C@@H](CO)C(=O)N[C@H](C(=O)N[C@@](C)(CC(C)C)C(=O)N[C@@H](CC(C)C)C(=O)N[C@@H](CC(=O)O)C(=O)N[C@@H](CCCCN)C(=O)N[C@@H](CCCCNC(=O)COCCOCCNC(=O)COCCOCCNC(=O)CC[C@H](NC(=O)CCCCCCCCCCCCCCCCCCC(=O)O)C(=O)O)C(=O)N[C@@H](Cc1c[nH]cn1)C(=O)N[C@@H](CCC(N)=O)C(=O)NC(C)(C)C(=O)N[C@@H](CC(=O)O)C(=O)N[C@@H](Cc1ccccc1)C(=O)N[C@H](C(=O)N[C@@H](CCC(=O)O)C(=O)N[C@@H](Cc1ccncc1)C(=O)N[C@@H](CC(C)C)C(=O)N[C@@H](CC(C)C)C(=O)N[C@@H](C)C(=O)N[C@H](C(=O)NCC(=O)N1CCC[C@H]1C(=O)N[C@@H](CO)C(=O)N[C@@H](CO)C(=O)NCC(=O)N[C@@H](C)C(=O)N1CCC[C@H]1C(=O)N1CCC[C@H]1C(=O)N1CCC[C@H]1C(=O)N[C@@H](CO)C(N)=O)[C@@H](C)O)C(C)C)[C@@H](C)CC [Example 70] (H-Y[Aib]EGTFISDYSI[αMeL]LDKK([AEEA-AEEA-γGlu-C20 diacid])HQ[Aib]DFVE[4Pal]LLATGPSSGAPPPS-NH2)	0.857
CC[C@H](C)[C@H](NC(=O)[C@H](Cc1ccccc1)NC(=O)[C@@H](NC(=O)CNC(=O)[C@H](CCC(=O)O)NC(=O)C(C)(C)NC(=O)[C@@H](N)Cc1ccc(O)cc1)[C@@H](C)O)C(=O)N[C@@H](CO)C(=O)N[C@@H](CC(=O)O)C(=O)N[C@@H](Cc1ccc(O)cc1)C(=O)N[C@@H](CO)C(=O)N[C@H](C(=O)N[C@@](C)(CC(C)C)C(=O)N[C@@H](CC(C)C)C(=O)N[C@@H](CC(=O)O)C(=O)N[C@@H](CCCCN)C(=O)N[C@@H](CCCCNC(=O)COCCOCCNC(=O)COCCOCCNC(=O)CC[C@H](NC(=O)CCCCCCCCCCCCCCCCCCC(=O)O)C(=O)O)C(=O)N[C@@H](Cc1c[nH]cn1)C(=O)N[C@@H](CCC(N)=O)C(=O)NC(C)(C)C(=O)N[C@@H](CC(=O)O)C(=O)N[C@@H](Cc1ccccc1)C(=O)N[C@H](C(=O)N[C@@H](CCC(=O)O)C(=O)N[C@@H](Cc1ccc(O)cc1)C(=O)N[C@@H](CC(C)C)C(=O)N[C@@H](CC(C)C)C(=O)N[C@@H](CCC(=O)O)C(=O)NCC(=O)NCC(=O)N1CCC[C@H]1C(=O)N[C@@H](CO)C(=O)N[C@@H](CO)C(=O)NCC(=O)N[C@@H](C)C(=O)N1CCC[C@H]1C(=O)N1CCC[C@H]1C(=O)N1CCC[C@H]1C(=O)N[C@@H](CO)C(N)=O)C(C)C)[C@@H](C)CC [Example 69] (H-Y[Aib]EGTFISDYSI[αMeL]LDKK([AEEA-AEEA-γGlu-C20 diacid])HQ[Aib]DFVEYLLEGGPSSGAPPPS-NH2)	0.114
CC[C@H](C)[C@H](NC(=O)[C@H](CO)NC(=O)[C@H](Cc1ccc(O)cc1)NC(=O)[C@H](CC(=O)O)NC(=O)[C@H](CO)NC(=O)[C@@H](NC(=O)[C@](C)(Cc1ccccc1)NC(=O)[C@@H](NC(=O)CNC(=O)[C@H](CCC(=O)O)NC(=O)C(C)(C)NC(=O)[C@@H](N)Cc1ccc(O)cc1)[C@@H](C)O)[C@@H](C)CC)C(=O)N[C@@](C)(CC(C)C)C(=O)N[C@@H](CC(C)C)C(=O)N[C@@H](CC(=O)O)C(=O)N[C@@H](CCCCN)C(=O)N[C@@H](CCCCNC(=O)COCCOCCNC(=O)COCCOCCNC(=O)CC[C@H](NC(=O)CCCCCCCCCCCCCCCCCCC(=O)O)C(=O)O)C(=O)N[C@@H](Cc1c[nH]cn1)C(=O)N[C@@H](CCC(N)=O)C(=O)NC(C)(C)C(=O)N[C@@H](CC(=O)O)C(=O)N[C@@H](Cc1ccccc1)C(=O)N[C@H](C(=O)N[C@@H](CCC(=O)O)C(=O)N[C@@H](Cc1ccncc1)C(=O)N[C@@H](CC(C)C)C(=O)N[C@@H](CC(C)C)C(=O)N[C@@H](C)C(=O)NCC(=O)NCC(=O)N1CCC[C@H]1C(=O)N[C@@H](CO)C(=O)N[C@@H](CO)C(=O)NCC(=O)N[C@@H](C)C(=O)N1CCC[C@H]1C(=O)N1CCC[C@H]1C(=O)N1CCC[C@H]1C(=O)N[C@@H](CO)C(N)=O)C(C)C [Example 50] (H-Y[Aib]EGT[αMeF]ISDYSI[αMeL]LDKK([AEEA-AEEA-γGlu-C20 diacid])HQ[Aib]DFVE[4Pal]LLAGGPSSGAPPPS-NH2)	0.0234
CC[C@H](C)[C@H](NC(=O)[C@H](CO)NC(=O)[C@H](Cc1ccc(O)cc1)NC(=O)[C@H](CC(=O)O)NC(=O)[C@H](CO)NC(=O)[C@@H](NC(=O)[C@](C)(Cc1ccccc1F)NC(=O)[C@@H](NC(=O)CNC(=O)[C@H](CCC(=O)O)NC(=O)C(C)(C)NC(=O)[C@@H](N)Cc1ccc(O)cc1)[C@@H](C)O)[C@@H](C)CC)C(=O)N[C@@H](C)C(=O)N[C@@H](CC(C)C)C(=O)N[C@@H](CC(=O)O)C(=O)N[C@@H](CCCCN)C(=O)N[C@@H](CCCCNC(=O)COCCOCCNC(=O)COCCOCCNC(=O)CC[C@H](NC(=O)CCCCCCCCCCCCCCCCCCC(=O)O)C(=O)O)C(=O)N[C@@H](Cc1c[nH]cn1)C(=O)N[C@@H](CCC(N)=O)C(=O)NC(C)(C)C(=O)N[C@@H](CC(=O)O)C(=O)N[C@@H](Cc1ccccc1)C(=O)N[C@H](C(=O)N[C@@H](CCC(=O)O)C(=O)N[C@@H](Cc1ccc(O)cc1)C(=O)N[C@@H](CC(C)C)C(=O)N[C@@H](CC(C)C)C(=O)N[C@@H](CCC(=O)O)C(=O)N[C@H](C(=O)NCC(=O)N1CCC[C@H]1C(=O)N[C@@H](CO)C(=O)N[C@@H](CO)C(=O)NCC(=O)N[C@@H](C)C(=O)N1CCC[C@H]1C(=O)N1CCC[C@H]1C(=O)N1CCC[C@H]1C(=O)N[C@@H](CO)C(N)=O)[C@@H](C)O)C(C)C [Example 36] (H-Y[Aib]EGT[αMePhe(2-F)]ISDYSIALDKK([AEEA-AEEA-γGlu-C20 diacid])HQ[Aib]DFVEYLLETGPSSGAPPPS-NH2)	0.201
CC[C@H](C)[C@H](NC(=O)[C@H](CO)NC(=O)[C@H](Cc1ccc(O)cc1)NC(=O)[C@H](CC(=O)O)NC(=O)[C@H](CO)NC(=O)[C@@H](NC(=O)[C@](C)(Cc1ccccc1)NC(=O)[C@@H](NC(=O)CNC(=O)[C@H](CCC(=O)O)NC(=O)C(C)(C)NC(=O)[C@@H](N)Cc1ccc(O)cc1)[C@@H](C)O)[C@@H](C)CC)C(=O)N[C@@H](C)C(=O)N[C@@H](CC(C)C)C(=O)N[C@@H](CC(=O)O)C(=O)N[C@@H](CCCCN)C(=O)N[C@@H](CCCCNC(=O)COCCOCCNC(=O)COCCOCCNC(=O)CC[C@H](NC(=O)CCCCCCCCCCCCCCCCCCC(=O)O)C(=O)O)C(=O)N[C@@H](Cc1c[nH]cn1)C(=O)N[C@@H](CCC(N)=O)C(=O)NC(C)(C)C(=O)N[C@@H](CC(=O)O)C(=O)N[C@@H](Cc1ccccc1)C(=O)N[C@H](C(=O)N[C@@H](CCC(=O)O)C(=O)N[C@@H](Cc1ccncc1)C(=O)N[C@@H](CC(C)C)C(=O)N[C@@H](CC(C)C)C(=O)N[C@@H](CCC(=O)O)C(=O)N[C@@H](CCC(N)=O)C(=O)NCC(=O)N1CCC[C@H]1C(=O)N[C@@H](CO)C(=O)N[C@@H](CO)C(=O)NCC(=O)N[C@@H](C)C(=O)N1CCC[C@H]1C(=O)N1CCC[C@H]1C(=O)N1CCC[C@H]1C(=O)N[C@@H](CO)C(N)=O)C(C)C [Example 42] (H-Y[Aib]EGT[αMeF]ISDYSIALDKK([AEEA-AEEA-γGlu-C20 diacid])HQ[Aib]DFVE[4Pal]LLEQGPSSGAPPPS-NH2)	0.0991
CC[C@H](C)[C@H](NC(=O)[C@H](CO)NC(=O)[C@H](Cc1ccc(O)cc1)NC(=O)[C@H](CC(=O)O)NC(=O)[C@H](CO)NC(=O)[C@@H](NC(=O)[C@](C)(Cc1ccccc1F)NC(=O)[C@@H](NC(=O)CNC(=O)[C@H](CCC(=O)O)NC(=O)[C@H](C)NC(=O)[C@@H](Cc1ccc(O)cc1)NC(C)=O)[C@@H](C)O)[C@@H](C)CC)C(=O)N[C@@H](C)C(=O)N[C@@H](CC(C)C)C(=O)N[C@@H](CC(=O)O)C(=O)N[C@@H](CCCCN)C(=O)N[C@@H](CCCCNC(=O)COCCOCCNC(=O)COCCOCCNC(=O)CC[C@H](NC(=O)CCCCCCCCCCCCCCCCCCC(=O)O)C(=O)O)C(=O)N[C@@H](Cc1c[nH]cn1)C(=O)N[C@@H](CCC(N)=O)C(=O)NC(C)(C)C(=O)N[C@@H](CCC(=O)O)C(=O)N[C@@H](Cc1ccccc1)C(=O)N[C@H](C(=O)N[C@@H](CC(N)=O)C(=O)N[C@@H](Cc1ccc(O)cc1)C(=O)N[C@@H](CC(C)C)C(=O)N[C@@H](CC(C)C)C(=O)N[C@@H](CCC(=O)O)C(=O)NCC(=O)NCC(=O)N1CCC[C@H]1C(=O)N[C@@H](CO)C(=O)N[C@@H](CO)C(=O)NCC(=O)N[C@@H](C)C(=O)N1CCC[C@H]1C(=O)N1CCC[C@H]1C(=O)N1CCC[C@H]1C(=O)N[C@@H](CO)C(N)=O)C(C)C [Example 33] (Ac-[dY]AEGT[αMePhe(2-F)]ISDYSIALDKK([AEEA-AEEA-γGlu-C20 diacid])HQ[Aib]EFVNYLLEGGPSSGAPPPS-NH2)	0.0635
